PMC6395927, “Rufomycin Targets ClpC1 Proteolysis in Mycobacterium tuberculosis and M. abscessus” (Antimicrobial Agents and Chemotherapy, 2019)
Several values for one entry are separate records, joined by “and”; a condition that tells them apart may be missing. Identical values can stand only once.

What was measured:
Assay type in all cases: cell-based, Mycobacterium tuberculosis
[1] = system: rRUFI M. tuberculosis strains (clpC1 mutants)
[2] = system: rECU M. tuberculosis strains (clpC1 mutants)
[3] = system: M. tuberculosis clinical isolates (pan-susceptible, MDR, XDR)

Molecule: NNC(=O)c1ccncc1 [INH, isoniazid]
- MIC [1]: 0.22 µM and 0.23 µM and 0.12 µM and 0.24 µM

Molecule: CC(=O)NC[C@H]1CN(c2ccc(N3CCOCC3)c(F)c2)C(=O)O1 [LZD, linezolid]
- MIC [2]: 2.5 µM and 1.9 µM and 1.6 µM

Molecule: O=[N+]([O-])c1cn2c(n1)OC[C@@H](OCc1ccc(OC(F)(F)F)cc1)C2 [PA824, pretomanid]
- MIC [2]: <0.031 µM
- MIC [1]: <0.031 µM and 0.041 µM and 0.046 µM

Molecule: C/C=C/C[C@@H]1NC(=O)[C@H](CC(C)C)N2C(=O)C(C[C@H](C)[C@H]2O)N(C)C(=O)[C@H](C)NC(=O)[C@H](Cc2ccc(O)c([N+](=O)[O-])c2)NC(=O)[C@H](CC(C)C)N(C)C(=O)[C@H](Cc2cn(C(C)(C)C3CO3)c3ccccc23)NC1=O (some centres unmarked) [RUFI, rufomycin I]
- MIC [2]: <0.01 µM and 0.017 µM
- activity against monoresistant, MDR, and XDR strains [3]: maintains activity

Molecule: [H]/N=C(/N)N[C@H]1[C@H](O)[C@@H](O)[C@H](O[C@@H]2O[C@@H](C)[C@](O)(C=O)[C@H]2O[C@@H]2O[C@@H](CO)[C@H](O)[C@@H](O)[C@@H]2NC)[C@@H](N/C(N)=N\[H])[C@@H]1O [STR, streptomycin]
- MIC [2]: 0.15 µM and 0.16 µM

Molecule: capreomycin
- MIC [2]: 0.42 µM and 0.49 µM
